Experimental data taken from US9663526B2, “Aminopyrimidinyl compounds” (Pfizer Inc., priority 2014, dated 2017).
Where two headings read alike, the source gives them in different places.

Experiments:
[1] = system: interferon alpha signalling (TYK2 and JAK1), STAT3 phosphorylation; experiment: Human whole blood INFα induced STAT3 phosphorylation assay; assay type: cell-based; settings: compound 60 minutes at 37° C., IFNα 5000 U/ml for 15 minutes, pSTAT3 in lymphocyte population by flow cytometry, read-out: HWB IFN alpha IC50;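 also: flow cytometry with anti-pSTAT3 staining, signal as percent-positive × mean fluorescence, baseline from unstimulated wells, 11-point dilution series, IC50 as inhibition of pSTAT3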
[2] = biological target: recombinant human kinase domain of TYK2 (Homo sapiens (Human), UniProt P29597); experiment: JAK Caliper enzyme assay at 1 mM ATP (TYK2); assay type: biochemical;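 also: microfluidic mobility-shift readout of synthetic peptide phosphorylation by TYK2, tuned to 20–30% conversion at room temperature, reaction stopped with EDTA, DMSO-only wells as uninhibited baseline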
[3] = biological target: recombinant human kinase domain of JAK2 (Homo sapiens (Human), UniProt O60674); experiment: JAK Caliper enzyme assay at 1 mM ATP (JAK2); assay type: biochemical;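 also: microfluidic mobility-shift read-out of fluorescent synthetic peptide phosphorylation, percent product converted from peak heights, room temperature, DMSO-only wells as uninhibited baseline, inhibition curve fit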
[4] = biological target: recombinant human kinase domain of JAK3 (Homo sapiens (Human), UniProt P52333); experiment: JAK Caliper enzyme assay at 1 mM ATP (JAK3); assay type: biochemical; settings: 1 mM ATP; read-out: IC50 (nM) JAK3;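 also: microfluidic mobility-shift readout of synthetic peptide phosphorylation, percent product converted from peak heights, normalized to DMSO-only wells as uninhibited baseline, room temperature incubation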
[5] = biological target: recombinant human kinase domain of JAK1 (Homo sapiens (Human), UniProt P23458); experiment: JAK Caliper enzyme assay at 1 mM ATP (JAK1); assay type: biochemical; settings: 1 mM ATP; read-out: IC50 (nM) JAK1;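 also: microfluidic mobility-shift readout of synthetic fluorescent peptide phosphorylation, percent product converted from peak height, inhibition relative to DMSO-only wells as uninhibited baseline, room temperature incubation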
[6] = 1 mM ATP, read-out: IC50 (nM) TYK2

Sequence of recombinant human kinase domain of JAK1 (P23458 875-1153): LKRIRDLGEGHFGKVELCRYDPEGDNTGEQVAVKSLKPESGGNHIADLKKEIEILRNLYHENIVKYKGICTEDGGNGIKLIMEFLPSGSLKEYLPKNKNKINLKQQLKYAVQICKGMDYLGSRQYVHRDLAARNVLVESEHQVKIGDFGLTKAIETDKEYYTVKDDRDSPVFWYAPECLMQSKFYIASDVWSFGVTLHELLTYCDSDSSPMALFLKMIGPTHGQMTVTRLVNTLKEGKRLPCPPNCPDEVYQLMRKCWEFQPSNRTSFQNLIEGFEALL
Sequence of recombinant human kinase domain of JAK2 (O60674 849-1124): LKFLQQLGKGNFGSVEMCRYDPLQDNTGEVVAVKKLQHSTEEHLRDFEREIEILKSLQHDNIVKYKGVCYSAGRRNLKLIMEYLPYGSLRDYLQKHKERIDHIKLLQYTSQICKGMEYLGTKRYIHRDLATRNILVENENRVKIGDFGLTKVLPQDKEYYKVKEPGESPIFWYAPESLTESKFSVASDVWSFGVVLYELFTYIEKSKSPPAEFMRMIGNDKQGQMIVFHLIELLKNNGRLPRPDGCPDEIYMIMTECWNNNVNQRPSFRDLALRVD
Sequence of recombinant human kinase domain of JAK3 (P52333 822-1111): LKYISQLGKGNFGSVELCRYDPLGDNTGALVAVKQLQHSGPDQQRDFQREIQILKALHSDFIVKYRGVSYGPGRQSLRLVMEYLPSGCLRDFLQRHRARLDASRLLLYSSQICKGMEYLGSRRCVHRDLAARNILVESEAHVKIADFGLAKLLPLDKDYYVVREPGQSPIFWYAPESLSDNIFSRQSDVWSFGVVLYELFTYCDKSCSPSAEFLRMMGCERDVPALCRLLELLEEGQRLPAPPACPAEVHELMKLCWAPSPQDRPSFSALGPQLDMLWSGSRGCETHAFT
Sequence of recombinant human kinase domain of TYK2 (P29597 897-1176): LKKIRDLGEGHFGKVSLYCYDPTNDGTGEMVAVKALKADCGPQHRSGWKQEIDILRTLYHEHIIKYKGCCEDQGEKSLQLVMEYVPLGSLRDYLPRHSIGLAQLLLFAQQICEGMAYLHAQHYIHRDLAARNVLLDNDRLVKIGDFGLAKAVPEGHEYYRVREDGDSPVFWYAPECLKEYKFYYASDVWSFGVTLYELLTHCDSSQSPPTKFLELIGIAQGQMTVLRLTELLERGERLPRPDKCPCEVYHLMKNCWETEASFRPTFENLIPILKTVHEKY

| SMILES | IC50 [1] | IC50 [2, 6] | IC50 [3] | IC50 [4] | IC50 [5] | IC50 [2] |
| --- | --- | --- | --- | --- | --- | --- |
| Cn1cc(Nc2nccc(N3C[C@H]4CC[C@@H](C3)N4C(=O)C3(F)CC3)n2)cn1 [Example 46, (1-fluorocyclopropyl)[(1R,5S)-3-{2-[(1-methyl-1H-pyrazol-4-yl)amino]pyrimidin-4-yl}-3,8-diazabicyclo[3.2.1]oct-8-yl]methanone] | 0.209 µM | 84 nM | 526 nM | 4160 nM | 173 nM | – |
| CCNC(=O)c1ccc(Nc2nccc(N3CC4CC(C3)N4C(=O)C(F)(F)F)n2)cc1C [Example 115, N-ethyl-2-methyl-4-({4-[6-(trifluoroacetyl)-3,6-diazabicyclo[3.1.1]hept-3-yl]pyrimidin-2-yl}amino)benzamide] | 0.234 µM | 64 nM | 3310 nM | > 10000 nM | 3790 nM | – |
| C[C@H](CO)c1ccc(Nc2nccc(N3C[C@H]4CC[C@@H](C3)N4C(=O)[C@@H]3CC3(F)F)n2)cn1 (single isomer, unassigned) [Example 12] | 0.088 µM | – | 80 nM | > 10000 nM | 79 nM | 28 nM |
| Cn1cc(Nc2nccc(N3C[C@H]4CC[C@@H](C3)N4C[C@@H]3CC3(F)F)n2)cn1 [Example 64, 4-[(1R,5S)-8-{[(1S)-2,2-difluorocyclopropyl]methyl}-3,8-diazabicyclo[3.2.1]oct-3-yl]-N-(1-methyl-1H-pyrazol-4-yl)pyrimidin-2-amine] | 0.071 µM | 41 nM | 320 nM | > 10000 nM | 95 nM | – |
| Cn1cc(Nc2nccc(N3C[C@H]4CC[C@@H](C3)N4Cc3ccno3)n2)cn1 [Example 56, N-(1-methyl-1H-pyrazol-4-yl)-4-[(1R,5S)-8-(1,2-oxazol-5-ylmethyl)-3,8-diazabicyclo[3.2.1]oct-3-yl]pyrimidin-2-amine] | 0.078 µM | 41 nM | 394 nM | > 10000 nM | 110 nM | – |
| Cn1cc(Nc2nccc(N3C[C@H]4CC[C@@H](C3)N4C3CC(C#N)C3)n2)cn1 (stereo partly drawn) [Example 59, 3-[(1R,5S)-3-{2-[(1-methyl-1H-pyrazol-4-yl)amino]pyrimidin-4-yl}-3,8-diazabicyclo[3.2.1]oct-8-yl]cyclobutanecarbonitrile] | 0.084 µM | 62 nM | 236 nM | 8800 nM | 78 nM | – |
| O=C([C@@H]1CC1(F)F)N1[C@@H]2CC[C@H]1CN(c1ccnc(Nc3cnc(CO)c(F)c3)n1)C2 [Example 25, [(1S)-2,2-difluorocyclopropyl][(1R,5S)-3-(2-{[5-fluoro-6-(hydroxymethyl)pyridin-3-yl]amino}pyrimidin-4-yl)-3,8-diazabicyclo[3.2.1]oct-8-yl]methanone] | 0.229 µM | 34 nM | 468 nM | > 10000 nM | 317 nM | – |
| CNC(=O)c1ncc(Nc2nccc(N3C[C@H]4CC[C@@H](C3)N4C(=O)[C@@H]3C[C@H]3C#N)n2)cc1Cl [Example 31, 3-chloro-5-({4-[(1R,5S)-8-{[(1R,2R)-2-cyanocyclopropyl]carbonyl}-3,8-diazabicyclo[3.2.1]oct-3-yl]pyrimidin-2-yl}amino)-N-methylpyridine-2-carboxamide] | 0.284 µM | 32 nM | 401 nM | > 10000 nM | 78 nM | – |
| O=C(C1CC1)N1[C@@H]2CC[C@H]1CN(c1ccnc(Nc3cn[nH]c3)n1)C2 [Example 49, cyclopropyl{(1R,5S)-3-[2-(1H-pyrazol-4-ylamino)pyrimidin-4-yl]-3,8-diazabicyclo[3.2.1]oct-8-yl}methanone] | 0.085 µM | 49 nM | 614 nM | > 10000 nM | 77 nM | – |
| Cn1cc(Nc2ncc(F)c(N3C[C@@]4(CO)C[C@@]4(NC(=O)[C@@H]4C[C@H]4C#N)C3)n2)cn1 [Example 110, (1R,2R)-2-cyano-N-[(1S,5S)-3-{5-fluoro-2-[(1-methyl-1H-pyrazol-4-yl)amino]pyrimidin-4-yl}-5-(hydroxymethyl)-3-azabicyclo[3.1.0]hex-1-yl]cyclopropanecarboxamide] | 0.146 µM | 58 nM | 455 nM | 928 nM | 29 nM | – |
| N#CCCN1[C@@H]2CC[C@H]1CN(c1ccnc(Nc3cn[nH]c3)n1)C2 [Example 79, 3-{(1R,5S)-3-[2-(1H-pyrazol-4-ylamino)pyrimidin-4-yl]-3,8-diazabicyclo[3.2.1]oct-8-yl}propanenitrile] | 0.065 µM | 34 nM | 406 nM | 8420 nM | 38 nM | – |
| CNC(=O)c1ncc(Nc2nccc(N3C[C@H]4CC[C@@H](C3)N4C(=O)C3CC3)n2)cc1Cl [Example 30, 3-chloro-5-({4-[(1R,5S)-8-(cyclopropylcarbonyl)-3,8-diazabicyclo[3.2.1]oct-3-yl]pyrimidin-2-yl}amino)-N-methylpyridine-2-carboxamide] | 0.653 µM | 97 nM | 2130 nM | > 10000 nM | 1160 nM | – |
| CCNC(=O)c1ccc(Nc2nccc(N3CC4CC(C3)N4C(=O)C3CC3)n2)cc1C [Example 113, 4-({4-[6-(cyclopropylcarbonyl)-3,6-diazabicyclo[3.1.1]hept-3-yl]pyrimidin-2-yl}amino)-N-ethyl-2-methylbenzamide] | 0.939 µM | 82 nM | 7860 nM | > 10000 nM | 8580 nM | – |
| Cn1cc(Nc2nccc(N3C[C@H]4CC[C@@H](C3)N4Cc3nccs3)n2)cn1 [Example 57, N-(1-methyl-1H-pyrazol-4-yl)-4-[(1R,5S)-8-(1,3-thiazol-2-ylmethyl)-3,8-diazabicyclo[3.2.1]oct-3-yl]pyrimidin-2-amine] | 0.338 µM | 89 nM | 1070 nM | > 10000 nM | 294 nM | – |
| O=C([C@@H]1CC1(F)F)N1[C@@H]2CC[C@H]1CN(c1ccnc(Nc3cnc(N4CC[C@H](O)C4)c(F)c3)n1)C2 [Example 20, [(1S)-2,2-difluorocyclopropyl]{(1R,5S)-3-[2-({5-fluoro-6-[(3S)-3-hydroxypyrrolidin-1-yl]pyridin-3-yl}amino)pyrimidin-4-yl]-3,8-diazabicyclo[3.2.1]oct-8-yl}methanone] | 0.458 µM | 58 nM | 346 nM | > 10000 nM | 314 nM | – |
| CNC(=O)c1ncc(Nc2nccc(N3C[C@H]4CC[C@@H](C3)N4C(=O)[C@@H]3CC3(F)F)n2)cc1Cl [Example 10, 3-chloro-5-({4-[(1R,5S)-8-{[(1S)-2,2-difluorocyclopropyl]carbonyl}-3,8-diazabicyclo[3.2.1]oct-3-yl]pyrimidin-2-yl}amino)-N-methylpyridine-2-carboxamide] | 0.439 µM | 22 nM | 367 nM | > 10000 nM | 171 nM | – |
| CNC(=O)c1ncc(Nc2nccc(N3C[C@H]4CC[C@@H](C3)N4C(=O)[C@@H]3C[C@H]3C#N)n2)cc1F [Example 27, 5-({4-[(1R,5S)-8-{[(1R,2R)-2-cyanocyclopropyl]carbonyl}-3,8-diazabicyclo[3.2.1]oct-3-yl]pyrimidin-2-yl}amino)-3-fluoro-N-methylpyridine-2-carboxamide] | 0.139 µM | 61 nM | 640 nM | > 10000 nM | 78 nM | – |
| CNC(=O)c1ncc(Nc2nccc(N3C[C@H]4CC[C@@H](C3)N4Cc3ccno3)n2)cc1C [Example 53, N,3-dimethyl-5-({4-[(1R,5S)-8-(1,2-oxazol-5-ylmethyl)-3,8-diazabicyclo[3.2.1]oct-3-yl]pyrimidin-2-yl}amino)pyridine-2-carboxamide] | 0.287 µM | 24 nM | 375 nM | > 10000 nM | 226 nM | – |
| C[C@@H](CO)c1ccc(Nc2nccc(N3C[C@H]4CC[C@@H](C3)N4C(=O)[C@@H]3CC3(F)F)n2)cn1 (single isomer, unassigned) [Example 11] | 0.134 µM | – | 141 nM | > 10000 nM | 139 nM | 40 nM |
| CCNC(=O)c1ccc(Nc2ncc(F)c(N3CC4CC(C3)N4C(=O)C(C)(C)F)n2)cc1C [Example 112, N-ethyl-4-({5-fluoro-4-[6-(2-fluoro-2-methylpropanoyl)-3,6-diazabicyclo[3.1.1]hept-3-yl]pyrimidin-2-yl}amino)-2-methylbenzamide] | 0.775 µM | 21 nM | 3040 nM | > 10000 nM | 4070 nM | – |
| CNC(=O)c1ncc(Nc2nccc(N3C[C@H]4CC[C@@H](C3)N4C(=O)[C@@H]3CC3(F)F)n2)cc1C (single isomer, unassigned) [Example 33] | 0.122 µM | 15 nM | 116 nM | 9280 nM | 62 nM | – |
| Cn1cc(Nc2ncc(F)c(N3C[C@@]4(CO)C[C@@]4(NC(=O)[C@@H]4CC4(F)F)C3)n2)cn1 [Example 109, (1S)-2,2-difluoro-N-[(1S,5S)-3-{5-fluoro-2-[(1-methyl-1H-pyrazol-4-yl)amino]pyrimidin-4-yl}-5-(hydroxymethyl)-3-azabicyclo[3.1.0]hex-1-yl]cyclopropanecarboxamide] | 0.507 µM | 51 nM | – | > 10000 nM | 211 nM | – |
| Cn1cc(Nc2nccc(N3C[C@H]4CC[C@@H](C3)N4Cc3cnoc3)n2)cn1 [Example 58, N-(1-methyl-1H-pyrazol-4-yl)-4-[(1R,5S)-8-(1,2-oxazol-4-ylmethyl)-3,8-diazabicyclo[3.2.1]oct-3-yl]pyrimidin-2-amine] | 0.158 µM | 73 nM | – | > 10000 nM | 267 nM | – |
